Converted amounts (≈) assume the structure as drawn. “And” between values parts separate entries of the source, which are not always exact repeats. Equal entries are not always repeated. Where two headings read alike, the source gives them in different places. Where a SMILES comes first, the peptide text is derived from it. [ ]: non-standard residue; d: D form. The star is where a group is joined. NMeF = CN[C@@H](Cc1ccccc1)C(=O)O; NMeK = CN[C@@H](CCCCN)C(=O)O; Decanoyl = CCCCCCCCCC(=O)*
Experiments:
[1] = test system: S. aureus RM * SA1 (Methicillin-resistant Staphylococcus aureus); conditions: S. aureus RM * SA1 (MRSA)
E. coli ATCC 35218 = type: cell-based, Escherichia coli; conditions: ATCC 35218, 24 h
Procedure: (§1) The test was conducted in triplicate.

C. tropicalis DBFIQ 3 = type: cell-based, Candida tropicalis; conditions: DBFIQ 3, 24 h
Procedure: (§2) Each inoculum was taken and the cellular concentration was adjusted to 2 × 10^3 CFU/mL in Sabouraud Dextrose Broth (SDB) (Biokar Diagnostics, Cedex, France). Next, 50 µL of these inocula was added to 50 µL of peptide solution in serial 2-fold dilutions. […] […] The test was conducted in triplicate.

P. aeruginosa ATCC 27853 = type: cell-based, Pseudomonas aeruginosa; conditions: ATCC 27853, 24 h
Procedure: as §1

HeLa cells = conditions: 24 h
Procedure: We assessed the cytotoxicity of the compounds synthesized using HeLa cells.
The 3–4,5-dimethylthiazol-2,5-biphenyl tetrazolium bromide (MTT) cell viability assay was used to assess the cytotoxic activity of synthetic compounds against the human HeLa line. HeLa cells were seeded in 96-well plates at 1 × 10^5 cells/well, in which the peptide solution was added at different concentrations (3.125–400 μM) for 24 h of incubation. Next, MTT reagent (Sigma-Aldrich, St. Louis, MO, USA) was added, and the cells were incubated for 2 h. Then, 100 μL of dimethylsulfoxide (DMSO) was added to each well to dissolve formazan crystals, and the plates were read at 595 nm.

Yeast = conditions: for MIC Average Yeast: 24 h; for TI Yeast, HC50/MIC average: first value of the cell, a single value holds for HC50 and IC50 (400 µM used); for TI Yeast, IC50/MIC average: second value of the cell, HeLa IC50 based
Procedure: Each inoculum was taken and the cellular concentration was adjusted to 2 × 10^3 CFU/mL in Sabouraud Dextrose Broth (SDB) (Biokar Diagnostics, Cedex, France). Next, 50 µL of these inocula was added to 50 µL of peptide solution in serial 2-fold dilutions. […] The MIC was considered the lowest peptide concentration that inhibited visible growth of each yeast strain. The test was conducted in triplicate.
(§3) The TI is defined as the relationship between the concentration that caused 50% of hemolysis (HC50) or a 50% reduction in HeLa cell viability and the MIC. Thus, higher TI values indicate greater antimicrobial specificity. […] The average MIC for each peptide against different microorganism groups was used to calculate the TI value.

C. albicans PEEC 2 = type: cell-based, Candida albicans; conditions: PEEC 2, 24 h
Procedure: as §2

Human erythrocytes = assay: Hemolysis assay; type: cell-based; conditions: human erythrocytes 0.4% (v/v), 37 °C, 60 min, 6.25 to 400 µM
Procedure: Hemolytic activity was determined using red blood cells and the hemoglobin released was measured at 405 nm. The percentage of hemolysis corresponding to the synthetic compounds is shown in Figure 1 while the HC50 values are provided in Table 3. […] Substitutions by N-methyl and D-amino acids reduced the hemolytic activity of the peptides and lipopeptides. […] For all the peptides and most of the lipopeptides, the HC50 values exceeded 400 μM. Indeed, the HC50 values were lower only for C10:0-A2(9-NMeLys) and C10:0-A2, which were around 300 and 200 μM, respectively.
Erythrocyte lysis was determined using the following previously optimized protocols. Human erythrocytes from a healthy voluntary donor were isolated by centrifugation (3000 rpm for 10 min) after washing three times with Physiological Solution (PS). Erythrocyte solutions were prepared at a concentration of 0.4% (v/v) in PS. Test tubes containing 200 µL of erythrocyte solution were incubated at 37 °C for 60 min with 200 µL of peptide solution at concentrations ranging from 6.25 to 400 µM. After centrifugation at 3000 rpm for 5 min, supernatant absorbance was measured at 405 nm. Lysis induced by 1% Triton X-100 was taken as a 100% reference value.

Gram (−) bacteria = conditions: for MIC Average Bacteria Gram (−): average over Gram (−) strains; for TI Bacteria Gram (−), HC50/MIC average: first value of the cell, a single value holds for HC50 and IC50 (400 µM used); for TI Bacteria Gram (−), IC50/MIC average: second value of the cell, HeLa IC50 based
Procedure: (§4) The MIC against bacterial strains was determined by the modified broth microtiter dilution method, following the procedures proposed by R.E.W. Hancock Laboratory for testing antimicrobial peptides. The target strains Escherichia coli ATCC 35218, Pseudomonas aeruginosa ATCC 27853, Enterococcus faecalis ATCC 29212, and Staphylococcus aureus ATCC 25923 belong to the American Type Culture Collection (ATCC). The Methicillin-Resistant Staphylococcus aureus BSF FBCB1313 strain (MRSA) was provided by the Clinical Bacteriology Section of FBCB-UNL. All strains were activated by culture for 24 h at 37 °C in Mueller-Hinton Broth (MHB) (Biokar Diagnostics, Cedex, France). Each inoculum was taken and adjusted to a cellular concentration of 5 × 10^5 colony-forming units (CFU)/mL in diluted MHB. All the peptides were dissolved in bovine serum albumin buffer with the addition of 0.01% acetic acid; 100 µL of each inoculum was added to 11 µL of peptide solution in serial 2-fold dilutions and were incubated for 18–24 h at 37 °C. The MIC was the lowest peptide concentration that inhibited visible growth of each bacterial strain. The test was conducted in triplicate.
as §3

Gram (+) bacteria = conditions: for MIC Average Bacteria Gram (+): average over Gram (+) strains; for TI Bacteria Gram (+), HC50/MIC average: first value of the cell, a single value holds for HC50 and IC50 (400 µM used); for TI Bacteria Gram (+), IC50/MIC average: second value of the cell, HeLa IC50 based
Procedure: as §4, §3

E. faecalis ATCC 29212 = type: cell-based, Enterococcus faecalis; conditions: ATCC 29212, 24 h
Procedure: as §1

S. aureus ATCC 25923 = type: cell-based, Staphylococcus aureus; conditions: ATCC 25923, 24 h
Procedure: as §1

[2] = Critical micelle concentration by conductimetry in Milli-Q water; type: physicochemical; conditions: 25 °C
Procedure: On the other hand, acylation confers that the peptide has capacity to self-assemble into nanostructures, resulting in a surfactant-like structure, which may affect the extent of peptide insertion and disruption of bacterial membrane integrity. In this work, the CMC of the lipopeptides was determined by conductimetry in Milli-Q water. All the lipopeptides adopted a micellar assembly with CMC values ranging from 2.0 to 5.7 mM (Table 1). […] This effect appeared to be more important when substitution by an N-methyl amino acid was performed on amino acids located on the non-polar face of the amphipathic helix (CMC values of C10:0-A2(8-NMePhe) = 2.01 mM). For all the lipopeptides, the CMC values remained above the MIC values, which could indicate that these molecules interact with the cell membrane as monomers and, consequently, that this property would not be necessary for antimicrobial activity. This notion is in concordance with reports in the literature on short cationic lipopeptides.
A lipopeptide solution was prepared in Milli Q water, and the specific conductivity of each lipopeptide solution, in a concentration ranging from 0.06 to 18 mg/mL, was measured using a drop conductivity meter (HORIBA, Kyoto, Japan), at 25 °C. Conductivity values were plotted vs. lipopeptide concentration (mS × cm^−1 vs. mg/mL), and the CMC was graphically determined.

SMILES	MIC [1]	MIC (E. coli ATCC 35218)	MIC (C. tropicalis DBFIQ 3)	MIC (P. aeruginosa ATCC 27853)	IC50 (HeLa cells)	MIC Average Yeast (Yeast)	TI Yeast, HC50/MIC average (Yeast)	MIC (C. albicans PEEC 2)	HC50 ± SD (Human erythrocytes)	MIC Average Bacteria Gram (−) (Gram (−) bacteria)	TI Bacteria Gram (−), HC50/MIC average (Gram (−) bacteria)	MIC Average Bacteria Gram (+) (Gram (+) bacteria)	TI Bacteria Gram (+), HC50/MIC average (Gram (+) bacteria)	MIC (E. faecalis ATCC 29212)	MIC (S. aureus ATCC 25923)	CMC [2]	TI Yeast, IC50/MIC average (Yeast)	TI Bacteria Gram (−), IC50/MIC average (Gram (−) bacteria)	TI Bacteria Gram (+), IC50/MIC average (Gram (+) bacteria)	IC50 (HeLa cells; read-out: IC50 ± SD, HeLa cells, MTT, 3.125–400 μM)
CCCCCCCCCC(=O)N[C@H](C(=O)N[C@@H](CCCCN)C(=O)N[C@@H](CCC(N)=O)C(=O)N[C@H](C(=O)N(C)[C@@H](CCCCN)C(=O)N[C@@H](CCCCN)C(=O)N[C@@H](CC(C)C)C(=O)N[C@@H](Cc1ccccc1)C(=O)N[C@@H](CCCCN)C(=O)N[C@@H](CCCCN)C(N)=O)C(C)C)[C@@H](C)CC [C10:0-A2(5-NMeLys), C10:0-IKQV(NMe-K)KLFKK-NH2] (Decanoyl-IKQV[NMeK]KLFKK-NH2)	5.6 µM (≈ 7.99 µg/mL)	2.8 µM (≈ 4 µg/mL)	179.5 µM (≈ 256 µg/mL)	5.6 µM (≈ 7.99 µg/mL)	> 400 µM	179.5 µM (≈ 256 µg/mL)	2.2	179.5 µM (≈ 256 µg/mL)	>400 µM	4.2 µM (≈ 5.99 µg/mL)	95.2	6.5 µM (≈ 9.28 µg/mL)	61.5	11.2 µM (≈ 16 µg/mL)	2.8 µM (≈ 4 µg/mL)	3.73 mM	–	–	–	–
CCCCCCCCCC(=O)N[C@H](C(=O)N[C@@H](CCCCN)C(=O)N[C@@H](CCC(N)=O)C(=O)N[C@H](C(=O)N[C@@H](CCCCN)C(=O)N[C@@H](CCCCN)C(=O)N[C@@H](CC(C)C)C(=O)N(C)[C@@H](Cc1ccccc1)C(=O)N[C@@H](CCCCN)C(=O)N[C@@H](CCCCN)C(N)=O)C(C)C)[C@@H](C)CC [C10:0-A2(8-NMePhe), C10:0-IKQVKKL(NMe-F)KK-NH2] (Decanoyl-IKQVKKL[NMeF]KK-NH2)	5.6 µM (≈ 7.99 µg/mL)	11.2 µM (≈ 16 µg/mL)	179.5 µM (≈ 256 µg/mL)	5.6 µM (≈ 7.99 µg/mL)	> 400 µM	179.5 µM (≈ 256 µg/mL)	2.2	179.5 µM (≈ 256 µg/mL)	>400 µM	8.4 µM (≈ 12 µg/mL)	47.6	6.5 µM (≈ 9.28 µg/mL)	61.5	11.2 µM (≈ 16 µg/mL)	2.8 µM (≈ 4 µg/mL)	2.01 mM	–	–	–	–
CCCCCCCCCC(=O)N[C@H](C(=O)N[C@@H](CCCCN)C(=O)N[C@@H](CCC(N)=O)C(=O)N[C@H](C(=O)N[C@@H](CCCCN)C(=O)N(C)[C@@H](CCCCN)C(=O)N[C@@H](CC(C)C)C(=O)N[C@@H](Cc1ccccc1)C(=O)N[C@@H](CCCCN)C(=O)N[C@@H](CCCCN)C(N)=O)C(C)C)[C@@H](C)CC [C10:0-A2(6-NMeLys), C10:0-IKQVK(NMe-K)LFKK-NH2] (Decanoyl-IKQVK[NMeK]LFKK-NH2)	5.6 µM (≈ 7.99 µg/mL)	1.4 µM (≈ 2 µg/mL)	89.7 µM (≈ 128 µg/mL)	0.7 µM (≈ 0.999 µg/mL)	400 ± 29 µM	67.3 µM (≈ 96 µg/mL)	5.9	44.9 µM (≈ 64.1 µg/mL)	>400 µM	1.1 µM (≈ 1.57 µg/mL)	363.6	4.2 µM (≈ 5.99 µg/mL)	95.2	5.6 µM (≈ 7.99 µg/mL)	1.4 µM (≈ 2 µg/mL)	3.63 mM	–	–	–	–
CCCCCCCCCC(=O)N[C@H](C(=O)N[C@@H](CCCCN)C(=O)N[C@@H](CCC(N)=O)C(=O)N[C@H](C(=O)N[C@@H](CCCCN)C(=O)N[C@@H](CCCCN)C(=O)N[C@@H](CC(C)C)C(=O)N[C@@H](Cc1ccccc1)C(=O)N(C)[C@@H](CCCCN)C(=O)N[C@@H](CCCCN)C(N)=O)C(C)C)[C@@H](C)CC [C10:0-A2(9-NMeLys), C10:0-IKQVKKLF(NMe-K)K-NH2] (Decanoyl-IKQVKKLF[NMeK]K-NH2)	2.8 µM (≈ 4 µg/mL)	2.8 µM (≈ 4 µg/mL)	179.5 µM (≈ 256 µg/mL)	0.7 µM (≈ 0.999 µg/mL)	> 400 µM	134.6 µM (≈ 192 µg/mL)	2.2	89.7 µM (≈ 128 µg/mL)	–	1.8 µM (≈ 2.57 µg/mL)	165.8	3.7 µM (≈ 5.28 µg/mL)	80.7	5.6 µM (≈ 7.99 µg/mL)	2.8 µM (≈ 4 µg/mL)	3.90 mM	3.0	222.2	108.1	–
CC(C)C[C@H](NC(=O)[C@H](CCCCN)NC(=O)[C@H](CCCCN)NC(=O)[C@H](Cc1ccccc1)N(C)C(=O)[C@H](CC(C)C)NC(=O)[C@H](CCCCN)NC(=O)[C@H](CCCCN)NC(=O)[C@H](Cc1ccccc1)N(C)C(=O)[C@H](CC(C)C)NC(=O)[C@@H](N)CCCCN)C(=O)N[C@@H](Cc1ccccc1)C(=O)N[C@@H](CCCCN)C(N)=O [TA4(3,7-NMePhe), KL(NMeF)KKL(NMeF)KKLFK-NH2] (H-KL[NMeF]KKL[NMeF]KKLFK-NH2; N-terminus assumed)	10.0 µM (≈ 16 µg/mL)	5.0 µM (≈ 7.98 µg/mL)	80.2 µM (≈ 128 µg/mL)	1.2 µM (≈ 1.91 µg/mL)	86.6 ± 7.35 µM	80.2 µM (≈ 128 µg/mL)	5.0	80.2 µM (≈ 128 µg/mL)	>400 µM	3.1 µM (≈ 4.94 µg/mL)	129.0	–	14.1	40.0 µM (≈ 63.8 µg/mL)	5.0 µM (≈ 7.98 µg/mL)	–	1.1	27.9	3.1	~86 µM and 86 µM

Reference: article PMC10215143, “D- and N-Methyl Amino Acids for Modulating the Therapeutic Properties of Antimicrobial Peptides and Lipopeptides” (Antibiotics, 2023)
